Measurements as given in US20060046992A1, “HETEROBICYCLIC COMPOUNDS” (priority 2002, published 2006).

Tests used:
[1] = tested on: MIN6 cell; assay: Insulin secretion promoting activity for cultured β-cells, in the presence of 14.5 mmol/L glucose; type: cell-based; settings: none: 148.4
Method: (§1) Further, the insulin secretion of the MIN6 cell is prompted in response to sulfonylurea-agents such as glibenclamide, which are used as a medicament for treatment of diabetes (Cellular Signalling, vol. 5, p. 777-786, 1993).
Culture of the MIN6 cells above and insulin secretion test utilizing the MIN6 cells were performed according to the methods described in Diabetologia, vol. 36, p. 1139-1145, 1993. The effect of a compound on the insulin secretion in the presence of 14.5 mmol/L glucose was determined by measuring insulin amounts in cell culture supernatants collected as follows. MIN6 cells cultured on a 24-well plate were washed twice by using 1 mL of Buffer A (119 mmol/L sodium chloride, 4.74 mmol/L potassium chloride, 2.54 mmol/L calcium chloride, 1.19 mmol/L magnesium sulfate, 1.19 mmol/L potassium dihydrogenphosphate, 10 mmol/L 2-[4-(2-hydroxyethyl)-1-piperazinyl]ethanesulfonic acid, and 0.1% bovine serum albumin, pH 7.3) containing 2 mmol/L glucose, and then were incubated in 1 mL of Buffer A containing 2 mmol/L glucose at 37° C. for 45 minutes. After the incubation, the culture supernatant was changed to Buffer A (0.9 mL) containing a test compound at various concentrations and 2 mmol/L glucose, and the cells were further incubated at 37° C. for 15 minutes. […]

[2] = tested on: MIN6 cell; assay: Insulin secretion promoting activity for cultured β-cells, in the presence of 5 mmol/L glucose; type: cell-based; settings: for Insulin secretion amount (ng/mL) Avg: 5 mmol/L glucose, None: 51.2; for secretion promoting action at low glucose concentration (in words): glucose at a low concentration (5 mmol/L)
Method: as §1
Separately, the effect of a compound on the insulin secretion in the presence of 5 mmol/L glucose was determined by measuring insulin amounts in cell culture supernatants collected as follows. MIN6 cells cultured on a 24-well plate were washed twice by using 1 mL of Buffer A containing 5 mmol/L glucose, and then the culture supernatant was changed to Buffer A (0.9 mL) containing a test compound at various concentrations and 5 mmol/L glucose. Then, the cells were incubated at 37° C. for 45 minutes (final glucose concentration: 5 mmol/L), and the culture supernatant was collected.
After the culture supernatant was diluted with a phosphate buffer containing 1% bovine serum albumin, 0.1% Tween 20, 0.12% disodium ethylenediaminetetraacetate (EDTA), and 0.1% sodium azide, antibody-reactive insulin secreted in the culture supernatant was qualified by enzyme immunoassay or radio immunoassay. The insulin level was indicated as the amount of human insulin (ng/mL). The results are indicated as average (avg) of 3 to 4 samples with standard error values (se).

Row | SMILES | Insulin secretion amount (ng/mL) avg ([1]; drug concentration 0.1 μmol/L) [ng/mL] | Insulin secretion amount (ng/mL) Avg ([2]; drug concentration 0.1 μmol/L) [ng/mL] | secretion promoting action at low glucose concentration (in words) [2] | Insulin secretion amount (ng/mL) avg ([1]; drug concentration 10 μmol/L) [ng/mL] | Insulin secretion amount (ng/mL) Avg ([2]; drug concentration 10 μmol/L) [ng/mL]
1 | COc1ccc(Cl)cc1C(=O)NCCc1ccc(S(=O)(=O)NC(=O)NC2CCCCC2)cc1 [Glibenclamide] | 177.8 | 156.8 | showed marked secretion promoting action | – | –
2 | CC(C)[C@H]1CC[C@H](C(=O)N[C@H](Cc2ccccc2)C(=O)O)CC1 [AY4166] | – | – | showed marked secretion promoting action | 195.1 | 170.8
